Assay results from patent US5641480A, “Hair care compositions comprising heteroatom containing alkyl aldonamide compounds” (Lever Brothers Company, Division of Conopco, Inc., priority 1994, dated 1997).
Each block holds one molecule with its values, some of them ahead of it.

Key:
[1] = Ross-Miles foam height assay of aldonamides (Examples 81-84); type: physicochemical; settings: 0.1% aldonamide, 40° C. (if not soluble, about 5°-10° C. above Krafft point), 0 ppm hardness; for Foam Height Final: after 10 minutes
Procedure: In the Ross-Miles method, 200 mL of a suffactant solution contained in a pipette of specified dimensions with a 2.9 -mm-i.d. orifice is allowed to fall 90 cm onto 50 mL of the same solution contained in a cylindrical vessel maintained at a given temperature by means of a water jacket. The height of the foam produced in the cylindrical vessel is read immediately after all the solution has run out of the pipette and then again after a given amount of time.
Using this method, the foam production (initial foam height in mm) and foam stability (final foam height after 10 minutes in mm) were measured at 0.1% aldonamtde concentration, 40° C. and 0 ppm (parts per million) hardness.

[2] = Krafft point determination; type: physicochemical; settings: 0.1% in water
Procedure: The temperature at and above which surfactants begin to form micelles instead of precipitates is referred to as the Krafft point (Tk) and at this temperature the solubility of a surfactant becomes equal to its CMC (numerical value at which micelles are formed).
The Krafft point was measured by preparing 650 ml of a 0.1% or 1.0% dispersion of aldonamide in water by weight. If the surfactant was soluble at room temperature, the solution was slowly cooled to 0° C. […] (less than zero). If it precipitated out of solution, the temperature at which precipitation occurs was taken as the Krafft point.
If the surfactant was insoluble at room temperature, the dispersion was slowly heated until the solution became homogeneous. It was then slowly cooled until precipitation occurred. The temperature at which the surfactant precipitates out of solution upon cooling was taken as the Krafft point.

Molecule: CCCCCCCNC(=O)[C@H](O)[C@@H](O)[C@H](O)[C@H](O)CO [C7 D-Gluconamide]
Foam Height Initial [1]: 0 mm | Foam Height Final [1]: 0 mm

Molecule: CCCCCCCCNC(=O)[C@H](O)[C@@H](O)[C@H](O)[C@H](O)CO [C8 D-Gluconamide]
Foam Height Initial [1]: 0 mm | Foam Height Final [1]: 0 mm

Molecule: CCCCCCCCCNC(=O)[C@H](O)[C@@H](O)[C@H](O[C@@H]1O[C@H](CO)[C@H](O)[C@H](O)[C@H]1O)[C@H](O)CO [C9 D-Lactobionamide, Nonyl D-Lactobionamide]
Krafft Point (0.1%) [2]: 42 °C | Foam Height Initial [1]: 0 mm | Foam Height Final [1]: 0 mm

Molecule: CCCCCCCCCCCNC(=O)[C@H](O)[C@@H](O)[C@H](O[C@@H]1O[C@H](CO)[C@H](O)[C@H](O)[C@H]1O)[C@H](O)CO [C11 D-Lactobionamide]
Krafft Point (0.1%) [2]: 61 °C | Foam Height Initial [1]: 0 mm | Foam Height Final [1]: 0 mm

Molecule: CCCCCCCCCCCCNC(=O)[C@H](O)[C@@H](O)[C@@H](O)[C@H](O)CO [C12 D-Galactonamide]
Foam Height Initial [1]: Insoluble

Molecule: CCCCCCCCCCCCNC(=O)C(O)C(O)C(O)C(O)C(O)C(O)CO [C12 D-Glucooctonamide]
Krafft Point (0.1%) [2]: 86 °C

Molecule: CCCCCCCCCCCCNC(=O)[C@H](O)[C@H](O)[C@@H](O)[C@@H](O)[C@H](O)CO [C12 D-Glycero-L-Mannoheptonamide]
Foam Height Initial [1]: Insoluble

Molecule: CCCCCCCCCCCCNC(=O)[C@H](O)[C@@H](O)[C@H](O[C@@H]1O[C@H](CO)[C@H](O)[C@H](O)[C@H]1O)[C@H](O)CO [C12 D-Lactobionamide]
Krafft Point (0.1%) [2]: 38 °C | Foam Height Initial [1]: 153 mm | Foam Height Final [1]: 20 mm

Molecule: CCCCCCCCCCCCNC(=O)[C@@H](O)[C@H](O)[C@H](O)[C@@H](O)CO [C12 L-Galactonamide]
Foam Height Initial [1]: Insoluble

Molecule: CCCCCCCCCCCCNC(=O)[C@H](O)[C@H](O)[C@@H](O)[C@@H](O)CO [C12 L-Mannonamide]
Foam Height Initial [1]: Insoluble

Molecule: CCCCCCCCCCCCOCCCNC(=O)[C@H](O)[C@H](O)[C@@H](O)[C@H](O)[C@H](O)CO [C12 Oxypropyl D-Glucoheptonamide]
Foam Height Initial [1]: 245 mm | Foam Height Final [1]: 80 mm

Molecule: CCCCCCCCCCCCOCCCNC(=O)[C@H](O)[C@@H](O)[C@H](O[C@H]1O[C@H](CO)[C@@H](O)[C@H](O)[C@H]1O)[C@H](O)CO [C12 Oxypropyl D-Maltobionamide, Dodecyloxypropyl D-Maltobionamide]
Krafft Point (0.1%) [2]: < 0 °C | Foam Height Initial [1]: 163 mm | Foam Height Final [1]: 155 mm

Molecule: CCCCCCCCCCCCNC(=O)[C@H](O)[C@H](O)[C@H](O)CO [C12 Ribonamide, Dodecyl D-Ribonamide]
Foam Height Initial [1]: 184 mm | Foam Height Final [1]: 103 mm

Molecule: CCCCCCCCCCCCCNC(=O)[C@H](O)[C@@H](O)[C@H](O[C@@H]1O[C@H](CO)[C@H](O)[C@H](O)[C@H]1O)[C@H](O)CO [C13 D-Lactobionamide]
Krafft Point (0.1%) [2]: 70 °C

Molecule: CCCCCCCCCCCCCCNC(=O)[C@H](O)[C@@H](O)[C@H](O)[C@H](O)CO [C14 D-Gluconamide]
Foam Height Initial [1]: Insoluble

Molecule: CCCCCCCCCCCCCCNC(=O)[C@H](O)[C@@H](O)[C@H](O[C@@H]1O[C@H](CO)[C@H](O)[C@H](O)[C@H]1O)[C@H](O)CO [C14 D-Lactobionamide]
Krafft Point (0.1%) [2]: 18 °C | Foam Height Initial [1]: 141 mm | Foam Height Final [1]: 59 mm

Molecule: CCCCCCCCCCCCOCCOCCOC(=O)CNC(=O)[C@H](O)[C@@H](O)[C@H](O)[C@H](O)CO [N--D-Gluconyl C12 Di(oxyethyl) Glycinate, N-D-Gluconyl Dodecyldi(oxyethyl) Glycinate]
Foam Height Initial [1]: 203 mm | Foam Height Final [1]: 169 mm

Molecule: Dodecyl to Pentadecyloxypropyl D-Lactobionamide [C12 -C15 Oxypropyl D-Lactobionamide]
Krafft Point (0.1%) [2]: < 0 °C | Foam Height Initial [1]: 166 mm | Foam Height Final [1]: 155 mm

Molecule: Dodecyl to Pentadecyloxypropylaminopropyl D-Lactobionamide
Krafft Point (0.1%) [2]: < 0 °C | Foam Height Initial [1]: 173 mm | Foam Height Final [1]: 169 mm

Molecule: Octyl/Decyloxypropyl D-Ribonamide [C8 /C10 Oxypropyl D-Ribonamide]
Foam Height Initial [1]: 217 mm | Foam Height Final [1]: 200 mm

Molecule: dodecyl to pentadecyloxypropyl D-gluconamide [C12 -C15 Oxypropyl D-Gluconamide]
Foam Height Initial [1]: 200 mm | Foam Height Final [1]: 110 mm

Now from value to molecule:

Foam Height Initial [1]: 197 mm | Foam Height Final [1]: 112 mm
Molecule: CCCCCCCCCCCCOC(=O)C(C)NC(=O)[C@H](O)[C@@H](O)[C@H](O)[C@H](O)CO (mixture of isomers) [N--D-Gluconyl C12 DL-Alaninate, N-D-Gluconyl Dodecyl DL-Alaninate]

Krafft Point (0.1%) [2]: 46 °C
Molecule: CCCCCCCCCCCCCCNC(=O)[C@H](O)[C@@H](O)[C@H](O[C@H]1O[C@H](CO)[C@@H](O)[C@H](O)[C@H]1O)[C@H](O)CO [C14 D-Maltobionamide]

Foam Height Initial [1]: 203 mm | Foam Height Final [1]: 101 mm
Molecule: CCCCCCCCCCCCCCOCCCNC(=O)[C@H](O)[C@@H](O)[C@H](O)[C@H](O)CO [C14 Oxypropyl D-Gluconamide]

Krafft Point (0.1%) [2]: < 0 °C | Foam Height Initial [1]: 163 mm | Foam Height Final [1]: 154 mm
Molecule: CCCCCCCCCCCCCCOCCCNC(=O)[C@H](O)[C@@H](O)[C@H](O[C@@H]1O[C@H](CO)[C@H](O)[C@H](O)[C@H]1O)[C@H](O)CO [C14 Oxypropyl D-Lactobionamide, Tetradecyloxypropyl D-Lactobionamide]

Krafft Point (0.1%) [2]: 84 °C
Molecule: CCCCCCCCCCCCCCCNC(=O)[C@H](O)[C@@H](O)[C@H](O[C@@H]1O[C@H](CO)[C@H](O)[C@H](O)[C@H]1O)[C@H](O)CO [C15 D-Lactobionamide]

Foam Height Initial [1]: Insoluble
Molecule: CCCCCCCCCCCCCCCCNC(=O)[C@H](O)[C@@H](O)[C@H](O)[C@H](O)CO [C16 D-Gluconamide]

Krafft Point (0.1%) [2]: 64 °C | Foam Height Initial [1]: 95 mm | Foam Height Final [1]: 95 mm
Molecule: CCCCCCCCCCCCCCCCNC(=O)[C@H](O)[C@@H](O)[C@H](O[C@@H]1O[C@H](CO)[C@H](O)[C@H](O)[C@H]1O)[C@H](O)CO [C16 D-Lactobionamide]

Foam Height Initial [1]: Insoluble
Molecule: CCCCCCCCCCCCCCCCCCNC(=O)[C@H](O)[C@@H](O)[C@H](O)[C@H](O)CO [C18 D-Gluconamide]

Krafft Point (0.1%) [2]: 82 °C
Molecule: CCCCCCCCCCCCCCCCCCNC(=O)[C@H](O)[C@@H](O)[C@H](O[C@@H]1O[C@H](CO)[C@H](O)[C@H](O)[C@H]1O)[C@H](O)CO [C18 D-Lactobionamide]

Krafft Point (0.1%) [2]: < 0 °C | Foam Height Initial [1]: 161 mm | Foam Height Final [1]: 153 mm
Molecule: CCCCCCCCCCCCOC(=O)CNC(=O)[C@H](O)[C@@H](O)[C@H](O[C@@H]1O[C@H](CO)[C@H](O)[C@H](O)[C@H]1O)[C@H](O)CO [D-Lactobionyl C12 Glycinate, N-D-Lactobionyl Dodecyl Glycinate]

Krafft Point (0.1%) [2]: < 0 °C | Foam Height Initial [1]: 159 mm | Foam Height Final [1]: 152 mm
Molecule: CCCCCCCCCCCCOC(=O)CCNC(=O)[C@H](O)[C@@H](O)[C@H](O[C@@H]1O[C@H](CO)[C@H](O)[C@H](O)[C@H]1O)[C@H](O)CO [D-Lactobionyl C12 β-Alaninate, N-D-Lactobionyl Dodecyl β-Alaninate]

Foam Height Initial [1]: 0 mm | Foam Height Final [1]: 0 mm
Molecule: CCCCC(CC)COCCCNC(=O)[C@H](O)[C@@H](O)[C@H](O)[C@H](O)CO (stereo partly drawn) [Ethylhexyloxypropyl D-Gluconamide]

Foam Height Initial [1]: 185 mm | Foam Height Final [1]: 111 mm
Molecule: CCCCCCCCCCCC(=O)OCCNC(=O)[C@H](O)[C@@H](O)[C@H](O)[C@H](O)CO [N--D-Gluconyl C12 Ester of Ethanolamine, N-D-gluconyl dodecyl ester of ethanolamine]

Foam Height Initial [1]: 183 mm | Foam Height Final [1]: 107 mm
Molecule: CCCCCCCCCCCCOC(=O)CNC(=O)[C@H](O)[C@@H](O)[C@H](O)[C@H](O)CO [N--D-Gluconyl C12 Glycinate, N-D-Gluconyl Dodecyl Glycinate]

Foam Height Initial [1]: 158 mm | Foam Height Final [1]: 84 mm
Molecule: CCCCCCCC/C=C\CCCCCCCCNCCCNC(=O)[C@H](O)[C@@H](O)[C@H](O)[C@H](O)CO [Oleylaminopropyl D-Gluconamide]

Krafft Point (0.1%) [2]: < 0 °C | Foam Height Initial [1]: 169 mm | Foam Height Final [1]: 165 mm
Molecule: CCCCCCCC/C=C\CCCCCCCCNCCCNC(=O)[C@H](O)[C@@H](O)[C@H](O[C@@H]1O[C@H](CO)[C@H](O)[C@H](O)[C@H]1O)[C@H](O)CO [Oleylaminopropyl D-Lactobionamide]

Krafft Point (0.1%) [2]: < 0 °C | Foam Height Initial [1]: 171 mm | Foam Height Final [1]: 168 mm
Molecule: Cocoaminopropyl D-Lactobionamide

Foam Height Initial [1]: 180 mm | Foam Height Final [1]: 176 mm
Molecule: dodecyl to pentadecyloxypropylaminopropyl D-gluconamide
